Measured values reported in patent US12077503B2, “Substituted cyclic amides and their use as herbicides” (FMC CORPORATION, priority 2015, dated 2024).

What was measured:
Assay type in all cases: in vivo
[1] = system: rice (Oryra sativa); assay: Test B flooded paddy test; conditions: Oryza sativa, 250 g ai/ha, Flood; 0 to 100 scale where 0 is no effect and 100 is complete control; read-out: Rice plant response rating
Method in brief: (§1)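 Greenhouse paddy pots with 2-leaf stage plants received compound by direct addition to floodwater 3 cm deep, kept at that level. Scored visually at 13–15 d versus controls (0 no effect; 100 complete control).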

[2] = system: ducksalad (Heteranthera limosa); assay: Test B flooded paddy test; conditions: Heteranthera limosa, 250 g ai/ha, Flood; 0 to 100 scale where 0 is no effect and 100 is complete control; read-out: Ducksalad plant response rating
Method in brief: as §1

[3] = system: barnyardgrass (Echinochloa crus-galli); assay: Test B flooded paddy test; conditions: Echinochloa crus-galli, 250 g ai/ha, Flood; 0 to 100 scale where 0 is no effect and 100 is complete control; read-out: Barnyardgrass plant response rating
Method in brief: as §1

[4] = system: sedge, umbrella (small-flower umbrella sedge, Cyperus difformis); assay: Test B flooded paddy test; conditions: Cyperus difformis, 250 g ai/ha, Flood; 0 to 100 scale where 0 is no effect and 100 is complete control; read-out: Sedge, Umbrella plant response rating
Method in brief: as §1

[5] = system: wheat (Triticum aestivum); assay: Test A postemergence; conditions: Triticum aestivum, post-emergence, 240 h, 125 g ai/ha, postemergence, visual injury vs untreated controls after approx. 10 d; 0 = no effect, 100 = complete control; read-out: Wheat plant response rating (0 to 100 scale)
Method in brief: (§2)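 In a loam soil and sand blend, planted seeds got a preemergence directed soil spray, and young plants at the one- to two-leaf stage, 2–10 cm high, got a postemergence application; ~10 d greenhouse hold; injury rated visually, 0 = none, 100 = complete control.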

[6] = system: giant foxtail (Setaria faberii); assay: Test A postemergence; conditions: Setaria faberi, post-emergence, 240 h; for pest or weed control at 125 g/ha: 125 g ai/ha, postemergence, visual injury vs untreated controls after approx. 10 d, 0 = no effect, 100 = complete control, read-out: Foxtail, Giant plant response rating (0 to 100 scale); for pest or weed control at 31 g/ha: Postemergence, 31 g ai/ha, visual injury after approx. 10 d, 0 to 100 scale, 0 no effect, 100 complete control, read-out: Plant response rating, Foxtail, Giant
Method in brief: as §2

[7] = system: ragweed (common ragweed, Ambrosia elatior); assay: Test A postemergence; conditions: Ambrosia artemisiifolia, post-emergence, 240 h, 125 g ai/ha, postemergence, visual injury vs untreated controls after approx. 10 d; 0 = no effect, 100 = complete control; read-out: Ragweed plant response rating (0 to 100 scale)
Method in brief: as §2

[8] = system: Galium (catchweed bedstraw, Galium aparine); assay: Test A postemergence; conditions: Galium, post-emergence, 240 h; for pest or weed control at 125 g/ha: 125 g ai/ha, postemergence, visual injury vs untreated controls after approx. 10 d, 0 = no effect, 100 = complete control, read-out: Galium plant response rating (0 to 100 scale); for pest or weed control at 31 g/ha: Postemergence, 31 g ai/ha, visual injury after approx. 10 d, 0 to 100 scale, 0 no effect, 100 complete control, read-out: Plant response rating, Galium
Method in brief: as §2

[9] = system: barnyardgrass (Echinochloa crus-galli); assay: Test A postemergence; conditions: Echinochloa crus-galli, post-emergence, 240 h; for pest or weed control at 125 g/ha: 125 g ai/ha, postemergence, visual injury vs untreated controls after approx. 10 d, 0 = no effect, 100 = complete control, read-out: Barnyardgrass plant response rating (0 to 100 scale); for pest or weed control at 31 g/ha: Postemergence, 31 g ai/ha, visual injury after approx. 10 d, 0 to 100 scale, 0 no effect, 100 complete control, read-out: Plant response rating, Barnyardgrass
Method in brief: as §2

[10] = system: ryegrass, Italian (Italian ryegrass, Lolium multiflorum); assay: Test A postemergence; conditions: Lolium multiflorum, post-emergence, 240 h, 125 g ai/ha, postemergence, visual injury vs untreated controls after approx. 10 d; 0 = no effect, 100 = complete control; read-out: Ryegrass, Italian plant response rating (0 to 100 scale)
Method in brief: as §2

[11] = system: Kochia (Kochia scoparia); assay: Test A postemergence; conditions: Bassia scoparia, post-emergence, 240 h; for pest or weed control at 125 g/ha: 125 g ai/ha, postemergence, visual injury vs untreated controls after approx. 10 d, 0 = no effect, 100 = complete control, read-out: Kochia plant response rating (0 to 100 scale); for pest or weed control at 31 g/ha: Postemergence, 31 g ai/ha, visual injury after approx. 10 d, 0 to 100 scale, 0 no effect, 100 complete control, read-out: Plant response rating, Kochia
Method in brief: as §2

[12] = system: corn (Zea mays); assay: Test A postemergence; conditions: Zea mays, post-emergence, 240 h; for plant injury at 125 g/ha: 125 g ai/ha, postemergence, visual injury vs untreated controls after approx. 10 d, 0 = no effect, 100 = complete control, read-out: Corn plant response rating (0 to 100 scale); for Corn plant response rating (crop injury, 0 = no effect, 100 = complete kill) at 31 g/ha: Postemergence, 31 g ai/ha, visual injury after approx. 10 d, 0 to 100 scale, 100 complete control
Method in brief: as §2

[13] = system: pigweed (Amaranthus retroflexus); assay: Test A postemergence; conditions: Amaranthus retroflexus, post-emergence, 240 h, 125 g ai/ha, postemergence, visual injury vs untreated controls after approx. 10 d; 0 = no effect, 100 = complete control; read-out: Pigweed plant response rating (0 to 100 scale)
Method in brief: as §2

[14] = system: blackgrass (Alopecurus myosuroides); assay: Test A postemergence; conditions: Alopecurus myosuroides, post-emergence, 240 h; for pest or weed control at 125 g/ha: 125 g ai/ha, postemergence, visual injury vs untreated controls after approx. 10 d, 0 = no effect, 100 = complete control, read-out: Blackgrass plant response rating (0 to 100 scale); for pest or weed control at 31 g/ha: Postemergence, 31 g ai/ha, visual injury after approx. 10 d, 0 to 100 scale, 0 no effect, 100 complete control, read-out: Plant response rating, Blackgrass
Method in brief: as §2

[15] = system: giant foxtail (Setaria faberii); assay: Test A preemergence; conditions: Setaria faberi, pre-emergence, 240 h, 0 to 100 scale where 0 is no effect and 100 is complete control, read-out: Foxtail, Giant plant response rating; for pest or weed control at 31 g/ha: 31 g ai/ha, Preemergence; for pest or weed control at 125 g/ha: 125 g ai/ha, preemergence
Method in brief: as §2

[16] = system: ragweed (common ragweed, Ambrosia elatior); assay: Test A preemergence; conditions: Ambrosia artemisiifolia, pre-emergence, 240 h, 0 to 100 scale where 0 is no effect and 100 is complete control, read-out: Ragweed plant response rating; for pest or weed control at 31 g/ha: 31 g ai/ha, Preemergence; for pest or weed control at 125 g/ha: 125 g ai/ha, preemergence
Method in brief: as §2

[17] = system: barnyardgrass (Echinochloa crus-galli); assay: Test A preemergence; conditions: Echinochloa crus-galli, pre-emergence, 240 h, 0 to 100 scale where 0 is no effect and 100 is complete control, read-out: Barnyardgrass plant response rating; for pest or weed control at 31 g/ha: 31 g ai/ha, Preemergence; for pest or weed control at 125 g/ha: 125 g ai/ha, preemergence
Method in brief: as §2

[18] = system: ryegrass, Italian (Italian ryegrass, Lolium multiflorum); assay: Test A preemergence; conditions: Lolium multiflorum, pre-emergence, 240 h, 0 to 100 scale where 0 is no effect and 100 is complete control, read-out: Ryegrass, Italian plant response rating; for pest or weed control at 31 g/ha: 31 g ai/ha, Preemergence; for pest or weed control at 125 g/ha: 125 g ai/ha, preemergence
Method in brief: as §2

[19] = system: Kochia (Kochia scoparia); assay: Test A preemergence; conditions: Bassia scoparia, pre-emergence, 240 h, 0 to 100 scale where 0 is no effect and 100 is complete control, read-out: Kochia plant response rating; for pest or weed control at 31 g/ha: 31 g ai/ha, Preemergence; for pest or weed control at 125 g/ha: 125 g ai/ha, preemergence
Method in brief: as §2

[20] = system: pigweed (Amaranthus retroflexus); assay: Test A preemergence; conditions: Amaranthus retroflexus, pre-emergence, 240 h, 0 to 100 scale where 0 is no effect and 100 is complete control, read-out: Pigweed plant response rating; for pest or weed control at 31 g/ha: 31 g ai/ha, Preemergence; for pest or weed control at 125 g/ha: 125 g ai/ha, preemergence
[21] = visual injury rating, approximately 10 d

SMILES	pest or weed control at 250 g/ha [1]	pest or weed control at 250 g/ha [2]	pest or weed control at 250 g/ha [3]	pest or weed control at 250 g/ha [4]	plant injury at 125 g/ha [5]	pest or weed control at 125 g/ha [6]	pest or weed control at 31 g/ha [6]	pest or weed control at 125 g/ha [7]	pest or weed control at 125 g/ha [8]	pest or weed control at 31 g/ha [8]	pest or weed control at 125 g/ha [9]	pest or weed control at 31 g/ha [9]	pest or weed control at 125 g/ha [10]	pest or weed control at 125 g/ha [11]	pest or weed control at 31 g/ha [11]	plant injury at 125 g/ha [12]	Corn plant response rating (crop injury, 0 = no effect, 100 = complete kill) at 31 g/ha [12]	pest or weed control at 125 g/ha [13]	pest or weed control at 125 g/ha [14]	pest or weed control at 31 g/ha [14]	also measured
CN1C[C@H](c2ccc(C(F)F)cc2)[C@@H](C(=O)Nc2ccccc2S(C)(=O)=O)C1=O [Compound 1175]	10%	90%	65%	0%	40%	80%	50%	30%	40%	20%	90%	50%	50%	0%	0%	30%	0%	20%	50%	0%	pest or weed control at 31 g/ha [15]: 70%; pest or weed control at 125 g/ha ([15]; approx. 10 d): 90%; pest or weed control at 31 g/ha [16]: 0%; pest or weed control at 125 g/ha ([16]; approx. 10 d): 20%; pest or weed control at 31 g/ha [17]: 50%; pest or weed control at 125 g/ha ([17]; approx. 10 d): 90%; pest or weed control at 31 g/ha [18]: 0%; pest or weed control at 125 g/ha ([18]; approx. 10 d): 20%; pest or weed control at 31 g/ha [19]: 20%; pest or weed control at 125 g/ha ([19]; approx. 10 d): 50%; pest or weed control at 31 g/ha [20]: 0%; pest or weed control at 125 g/ha ([20]; approx. 10 d): 40%
COc1ccc(C(F)(F)F)cc1[C@H]1CN(C)C(=O)[C@@H]1C(=O)Nc1cccc(F)c1F [Compound 1184]	15%	95%	90%	0%	60%	80%	80%	0%	20%	0%	80%	70%	30%	0%	0%	40%	50%	0%	60%	30%	pest or weed control at 31 g/ha [15]: 80%; pest or weed control at 125 g/ha [15, 21]: 90%; pest or weed control at 31 g/ha [16]: 0%; pest or weed control at 125 g/ha [16, 21]: 0%; pest or weed control at 31 g/ha [17]: 90%; pest or weed control at 125 g/ha [17, 21]: 100%; pest or weed control at 31 g/ha [18]: 40%; pest or weed control at 125 g/ha [18, 21]: 50%; pest or weed control at 31 g/ha [19]: 0%; pest or weed control at 125 g/ha [19, 21]: 0%; pest or weed control at 31 g/ha [20]: 0%; pest or weed control at 125 g/ha [20, 21]: 0%
